The target of experiment [1] is T1, 5-HT1A serotonin receptor (Rattus norvegicus, UniProt P19327).
T1 construct: from tissue
T1 sequence (P19327 1-422): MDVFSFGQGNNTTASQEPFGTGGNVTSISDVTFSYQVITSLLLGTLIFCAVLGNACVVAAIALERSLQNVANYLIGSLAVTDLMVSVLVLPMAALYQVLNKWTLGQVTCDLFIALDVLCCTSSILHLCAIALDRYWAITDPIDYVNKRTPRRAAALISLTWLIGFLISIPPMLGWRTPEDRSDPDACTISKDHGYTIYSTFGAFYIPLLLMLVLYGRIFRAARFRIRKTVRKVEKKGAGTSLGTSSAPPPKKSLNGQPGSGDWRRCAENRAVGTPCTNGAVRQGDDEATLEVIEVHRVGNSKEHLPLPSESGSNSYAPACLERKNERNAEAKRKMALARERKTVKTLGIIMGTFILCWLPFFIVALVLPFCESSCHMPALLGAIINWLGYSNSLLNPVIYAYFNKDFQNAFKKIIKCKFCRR
The conditions noted are these: qualitative statement on reference standard; cited from earlier work.

Experiment [2] has as its target T1, 5-HT1A serotonin receptor. The experiment in a line: 5-HT1A receptor binding, displacement of [^3 H]8-OHDPAT (procedure of Hall et al., J. Neurochem. 44, 1685 (1985)).
From the text: High affinity for the serotonin 5-HT1A receptor was established by testing the claimed compound's ability to displace [^3 H]8-OHDPAT (dipropylaminotetralin) from the 5-HT1A serotonin receptor following the procedure of Hall et al., J. Neurochem.

On to `O=C1CC2(CCCC2)CC(=O)N1CCCCN1CCN(c2ncccn2)CC1` [Buspirone], for which the “affinity for the 5-HT1A serotonin receptor subtype of the standard (in words)” value in experiment [1] is recorded as “potent affinity”. The IC50 is the concentration that inhibits the measured activity by half. A higher IC50 goes with weaker potency. In experiment [2], `O=C(C(CCN1CCN(c2cccccc2=O)CC1)c1ccccc1)N1CCCCCC1` (centres unmarked) [Example 1, 2-[4-(4-Azepan-1-yl-4-oxo-3-phenyl-butyl)-piperazin-1-yl]-cyclohepta-2,4,6-trienone] showed a half-inhibitory concentration (IC50) of 18.6 nM. Take `C[C@H](CN1CCN(c2cccccc2=O)CC1)Nc1ccccn1` [Example 2, (R)-2-{4-[2-(Pyridin-2-ylamino)-propyyl}-piperazin-1-yl}-cyclohepta-2,4,6trienone]: the IC50 in experiment [2] stood at 19.8 nM. Still for that read-out and setting: as for `C[C@H](CN1CCN(c2cccccc2=O)CC1)N(C(=O)C1CC=CCC1)c1ccccn1` (stereo partly drawn) [Example 3, Cyclohex-3-enecarboxylic acid (R)-{1-methyl-2-[4-(7-oxo-cyclohepta-1,3,5-trienyl)-piperazin-1-yl]-ethyl}-(pyridin-2-yl)-amide], the figure is 861 nM. For the molecule `C[C@H](CN1CCN(c2cccccc2=O)CC1)N(C(=O)C1CCCCC1)c1ccccn1` [Example 4, Cyclohexanecarboxylic acid (R)-{1-methyl-2-[4-(7-oxo-cyclohepta-1,3,5-trienyl)-piperazin-1-yl]-ethyl}-(pyrilin-2-yl)-amide], in experiment [2], the IC50 came out at 351 nM.

(Values after patent US5541179A, “Tropon-2-one piperazine carboxamides as serotonergic agents” (American Home Products Corporation, priority 1995, dated 1996).)
